Experimental data taken from patent US20240190904A1, “Heteroaryl compounds as inhibitors of RIP2 kinase, composition and application thereof” (Accro Bioscience (HK) Limited, priority 2021, published 2024).
≈ marks a conversion by molar mass, not a printed value.

Tests used:
[1] = Protein binding test (dialysis), rat; assay type: in vitro ADME; conditions: for fraction unbound at 5 h, 1 μM: rat plasma
Description: (§1) • 1. Spiking Solutions of Test and Reference Compounds • 1.1 Solution A (0.5 mM): Add 10 μL of 10 mM stock solution into 190 μL of DMSO. • 1.2 Solution B (0.02 mM): Add 8 μL of Solution A into 192 μL of 0.05 M sodium phosphate buffer. The final DMSO concentration in Solution B is 4%. • 2. Preparation of Test and Reference Compounds • 2.1 Preload a 96-well plate with 380 μL aliquots of plasma in the wells designated for plasma and buffer, respectively. • 2.2 Spike 20 μL of Solution B (0.02 mM of test and reference compounds) into the pre-loaded plasma in the 96-well plate. The final test concentration is 1 μM containing 0.2% DMSO. • 3. Dialysis Sample Loading • 3.1 Preparing plasma against buffer system (duplicate): Apply aliquots of 100 μL of blank dialysis buffer to the receiver side of dialysis chambers. Then apply aliquots of 100 μL of the plasma spiked with test and reference compounds to the donor side of the dialysis chambers. • 3.2 Preparing T0 plasma samples for initial concentrations (duplicate): • 3.2.1 Aliquot 25 μL of the plasma spiked with test and reference compounds into a 96-well sample preparation plate as T0 plasma samples • 3.2.2 Mix the aliquots with same volume of blank buffer (50:50, v/v). • 3.2.3 Quench the samples with 200 μL of acetonitrile containing internal standard (IS). • 3.3 Cover the dialysis block with a plastic lid and place the entire apparatus in a shaker (60 rpm) for 5 hours at 37° C. • 3.4 Preparing dialyzed samples after 5-hour incubation: • 3.4.1 Aliquot 25 μL from both the donor sides and receiver sides of the dialysis apparatus into new sample preparation plates and mix the aliquots with same volume of opposite matrixes (blank buffer to plasma and vice versa). • 3.4.2 Quench the samples with 200 μL acetonitrile containing internal standard (IS). Vortex all the samples (from 0 h and 5 h) at 600 rpm for 10 min followed by centrifugation at 5594 g for 15 minutes (ThermoMultifuge×3R). • 3.4.3 Transfer 50 μL of the supernatants to a new 96-well plate and mix the samples with 50 μL of Milli-Q water. Cover the sample plate and store it in a freezer (−20° C.) until LC/MS/MS analysis.

[2] = Metabolic stability test, DLM; assay type: in vitro ADME; conditions: dog, liver microsomes; for CLint scaled at 1 μM: pH 7.4, read-out: Cl (mL/min/kg) DLM; for half-life at 1 μM: pH 7.4, read-out: T1/2 (min) DLM
Description: (§2) • 1. Buffers: • Buffer A: 1.0 L of 0.1 M monobasic Potassium Phosphate buffer containing 1.0 mM EDTA • Buffer B: 1.0 L of 0.1 M Dibasic Potassium Phosphate buffer containing 1.0 mM EDTA • Buffer C: 0.1 M Potassium Phosphate buffer, 1.0 mM EDTA, pH 7.4 by titrating 700 mL of buffer B with buffer A while monitoring with the pH meter. • 2. Reference compounds (Ketanserin) and test compounds spiking solution: • 500 μM spiking solution: add 10 μL of 10 mM DMSO stock solution into 190 μL ACN. • 1.5 μM spiking solution in microsomes (0.75 mg/mL): add 1.5 μL of 500 μM spiking solution and 18.75 μL of 20 mg/mL liver microsomes into 479.75 μL of Buffer C on ice. • 3. Prepare NADPH stock solution (6 mM) by dissolving NADPH into buffer C. • 4. Dispense 30 μL of 1.5 μM spiking solution containing 0.75 mg/mL microsomes solution to the assay plates designated for different time points (0-, 5-, 15-, 30-, 45-min) on ice. • 5. For 0-min time point, add 135 μL of ACN containing IS to the wells of 0-min plate and then add 15 μL of NADPH stock solution (6 mM). • 6. Pre-incubate all other plates at 37° C. for 5 minutes. • 7. Add 15 μL of NADPH stock solution (6 mM) to the plates to start the reaction and timing. • 8. At 5-min, 15-min, 30-min, and 45-min, add 135 μL of ACN containing IS to the wells of corresponding plates, respectively, to stop the reaction. • 9. After quenching, shake the plates at the vibrator (IKA, MTS 2/4) for 10 min (600 rpm/min) and then centrifuge at 5594 g for 15 min (ThermoMultifuge×3R). • 10. Transfer 50 μL of the supernatant from each well into a 96-well sample plate containing 50 μL of ultra pure water (Millipore, ZMQS50F01) for LC/MS analysis.

[3] = Protein binding test (dialysis), human; assay type: in vitro ADME; conditions: for fraction unbound at 5 h, 1 μM: human plasma
Description: as §1

[4] = tested on: IL-8 in THP-1 induced by MDP; test: THP-1 cell assay, IL-8 ELISA after MDP; assay type: cell-based; conditions: Homo sapiens; test compounds 10 nM; THP-1, MDP induced
Description: Acute monoblastic and monocytic leukemia (THP-1) was obtained from ATCC (item NO. TIB-202™). The temperature of the sterile incubator is 37˜38° C., the osmotic pressure is 260˜320 mmol/L, the pH range is 7.2˜7.4, and the ratio of carbon dioxide gas is 5%.
Cells were seeded in 96-well plates. After an hour, cells were incubated with test compounds for 2 hours. MDP (10 μL) was added and incubated for 6 hours. The samples were centrifuged (3000 rmp/min) for 5 minutes. The concentration of IL-8 in the supernatants was detected by IL-8 ELISA.

[5] = Protein binding test (dialysis), dog; assay type: in vitro ADME; conditions: for fraction unbound at 5 h, 1 μM: dog plasma
Description: as §1

[6] = Thermodynamic solubility test; assay type: physicochemical; conditions: thermodynamic from solid; FaSSIF pH 6.5, thermodynamic
Description: • a. Add assay buffer into compound powder to make 4 mg/mL solution. • b. Sample tubes are shaken for 1 hour (1000 rpm), then equilibrated over night at room temperature. • c. Samples are centrifuged (10 min-12000 rpm) to precipitate un-dissolved particles. • d. Supernatants are transferred to new tubes. • e. Concentrations of the supernatants after centrifugation are determined by LCMSMS detection.

[7] = Metabolic stability test, RLM; assay type: in vitro ADME; conditions: rat, liver microsomes; for CLint scaled at 1 μM: pH 7.4, read-out: Cl (mL/min/kg) RLM; for half-life at 1 μM: pH 7.4, read-out: T1/2 (min) RLM
Description: as §2

SMILES | fraction unbound at 5 h, 1 μM [1] | CLint scaled at 1 μM [2] [mL/min/kg] | half-life at 1 μM [2] [min] | fraction unbound at 5 h, 1 μM [3] | inhibition at 0.01 µM [4] [%] | fraction unbound at 5 h, 1 μM [5] | solubility [6] [mM] | CLint scaled at 1 μM [7] [mL/min/kg] | half-life at 1 μM [7] [min] | protein binding in rat (in words) ([1]; rat) | protein binding in human (in words) ([3]; human) | protein binding in dog (in words) ([5]; dog)
COc1cc2nccc(Nc3ccc4scnc4c3)c2cc1P(C)(C)=O [A6] | 0.019 | 5.21 | 664 | 0.124 | 50 | 0.138 | 6.12 (≈ 2340 µg/mL) | 25.9 | 95.7 | – | – | –
CP(C)(=O)c1cc2c(Nc3ccc4scnc4c3)ccnc2cc1OCCO [A7, (4-(benzo[d]thiazol-5-ylamino)-7-(2-hydroxyethoxy)quinolin-6-yl)dimethylphosphine oxide] | – | 2.58 | 1340 | – | 25 | – | 5.31 (≈ 2200 µg/mL) | 17 | 146 | – | – | –
COCCOc1cc2nccc(Nc3ccc4scnc4c3)c2cc1P(C)(C)=O [A8] | – | 13.7 | 253 | – | 51 | – | 1.04 (≈ 444 µg/mL) | 25.9 | 95.7 | – | – | –
CC1(COc2cc3nccc(Nc4ccc5scnc5c4)c3cc2P(C)(C)=O)COC1 [A9] | – | 30.1 | 115 | – | 55 | – | 0.283 (≈ 128 µg/mL) | 63.9 | 38.9 | – | – | –
CP(C)(=O)c1cc2c(Nc3ccc4scnc4c3)ccnc2cc1O[C@H]1CCOC1 [A14] | 0.073 | 5.58 | 619 | 0.177 | – | 0.165 | – | 38.6 | 64.4 | – | – | –
CP(C)(=O)c1cc2c(Nc3ccc4scnc4c3)ccnc2cc1O[C@@H]1CCOC1 [A15] | 0.059 | 4.16 | 831 | 0.188 | – | 0.129 | – | 49.5 | 50.2 | – | – | –
CP(C)(=O)c1cc2c(Nc3ccc4scnc4c3)ccnc2cc1OC1COC1 [A16] | 0.069 | – | – | 0.195 | – | 0.145 | – | 16.9 | 147 | – | – | –
CP(C)(=O)c1cc2c(Nc3ccc4scnc4c3)ccnc2cc1OC(F)(F)F [A24] | 0.001 | – | – | 0.013 | – | 0.01 | – | – | – | high protein binding | high protein binding | high protein binding
